Laboratory results reported in article PMC6961518, “Fe-HBED Analogs: A Promising Class of Iron-Chelate Contrast Agents for Magnetic Resonance Imaging” (Contrast Media & Molecular Imaging, 2019).
Where two headings read alike, the source gives them in different places.

Key:
[1] = Relaxivity determination (r1, r2) on Bruker minispec mq60; assay type: physicochemical; details: PBS, 60 MHz, 40°C
Method: A stock solution having a concentration of 1 mM of the CA of interest was prepared in phosphate-buffered saline (PBS), and the iron concentration was verified by elemental analysis. Separate 0.75 mM, 0.50 mM, and 0.25 mM samples were prepared from the stock by dilution in PBS, and T1 and T2 relaxations times were recorded in triplicate for each sample on a Bruker minispec mq60 instrument (60 MHz, 40°C). The relaxivities (r1 and r2) were obtained as the gradient of 1/Tx (x = 1, 2) plotted against Fe chelate concentration following linear least squares regression analysis.

bovine serum albumin = bovine serum albumin (Bos taurus, UniProt P02769); assay: Serum protein binding assay (ultrafiltration, UV-Vis); assay type: in vitro ADME; details: bovine serum albumin 8 wt.% in PBS, 1 hour at room temperature, 30 kDa filter
Method: A 5 mM stock solution of the iron chelate complex under investigation was prepared in PBS, and the UV/visible spectrum of the solution was acquired to determine the wavelength of the absorbance maximum (λmax). An aliquot of the stock solution (500 μL) was added to a PBS solution (2 mL) containing bovine serum albumin (8 wt.%). A control sample was prepared by diluting a second aliquot of the stock solution (500 μL) with PBS (2 mL). The samples were vortexed briefly and then allowed to stand for 1 hour at room temperature. At the stipulated time, the resulting solutions were transferred to Amicon Ultra filters (4 mL, MWCO = 30 kDa). The solutions were centrifuged (3000 rcf, 15 min), and the permeate was taken directly for UV-Vis measurement. The wavelength and intensity of λmax in the visible region for the solution were recorded. The relative amount of free and protein-bound agent was calculated from the λmax intensity ratio of the assay to control samples.

[2] = Ascorbic acid oxidation assay (redox stability); details: iron chelate 20 μM (30 mol%), ascorbic acid 67 μM in PBS, 45 minutes, air oxidation
Method: The UV-Vis spectrum of an ascorbic acid solution (67 μM and 12 μg/mL) in PBS (3 mL) was recorded. The absorbance intensity at λmax = 265 nm was observed. An aliquot (30 μL) of the iron chelate of ethylenediaminetetraacetic acid (Fe-EDTA) in PBS (2 mM, 0.7 mg/mL) was added to afford a catalytic quantity of Fe-EDTA (20 μM, 30 mol%) with respect to ascorbic acid. The absorbance intensity (λmax = 265 nm) was recorded at intervals of 1 minute for a period of 45 minutes and the data normalized to the t0 absorbance. The experiment was then repeated identically using a solution of the iron chelate complex under investigation (20 μM, 30 mol%), and the results were plotted as a function of the percent initial ascorbic acid signal versus elapsed time (min).

[3] = set-up: method as in PMID 16230904; details: in water at 1.5 T; cited from earlier work
[4] = cited from earlier work

Sequence of bovine serum albumin (P02769 25-607): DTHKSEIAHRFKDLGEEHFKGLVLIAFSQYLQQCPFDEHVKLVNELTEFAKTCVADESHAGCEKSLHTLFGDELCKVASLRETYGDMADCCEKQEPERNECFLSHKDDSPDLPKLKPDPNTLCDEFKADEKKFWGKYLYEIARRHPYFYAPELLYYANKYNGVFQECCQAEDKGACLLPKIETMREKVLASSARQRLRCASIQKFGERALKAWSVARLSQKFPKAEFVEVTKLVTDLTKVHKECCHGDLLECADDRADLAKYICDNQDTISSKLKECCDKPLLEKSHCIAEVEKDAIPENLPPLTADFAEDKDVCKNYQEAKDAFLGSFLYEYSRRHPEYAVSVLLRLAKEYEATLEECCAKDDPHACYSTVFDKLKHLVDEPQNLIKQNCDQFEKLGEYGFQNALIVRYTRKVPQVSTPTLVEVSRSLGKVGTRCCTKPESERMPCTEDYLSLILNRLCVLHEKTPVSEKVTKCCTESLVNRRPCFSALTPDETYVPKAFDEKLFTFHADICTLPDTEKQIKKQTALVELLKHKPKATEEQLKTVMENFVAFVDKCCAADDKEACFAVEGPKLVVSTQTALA

O=P1(O)CN2CCN3Cc4cccc(CO)c4[O][Fe]([O]c4c(CO)cccc4C2)([O]1)[O]P(=O)(O)C3 [Fe-4]
r1 [1]: 0.9 mM⁻¹ s⁻¹
Protein binding (bovine serum albumin): 20%

O=P1(O)CN2CCN3Cc4ccccc4[O][Fe]([O]c4ccccc4C2)([O]1)[O]P(=O)(O)C3 [Fe-3]
pseudo-first-rate time constant for ascorbic acid consumption, relative to Fe-EDTA [2]: < 0.5%
r1 [1]: 1.3 mM⁻¹ s⁻¹
Protein binding (bovine serum albumin): 49%

O=C1CN2CCN3CC(=O)[O][Fe]([O]1)([O]c1ccc(S(=O)(=O)O)cc1C2)[O]c1ccc(S(=O)(=O)O)cc1C3 [Fe-2]
pseudo-first-rate time constant for ascorbic acid consumption, relative to Fe-EDTA [2]: < 0.5%
r1 [1]: 0.9 mM⁻¹ s⁻¹

CNC[C@H](O)[C@@H](O)[C@H](O)[C@H](O)CO.CNC[C@H](O)[C@@H](O)[C@H](O)[C@H](O)CO.O=C([O-])CN(CCN(CC(=O)[O-])CC(=O)O)CCN(CC(=O)[O-])CC(=O)O.[Gd+3] [Gd-1, Gadopentetate dimeglumine]
r1 [3]: 3.3 mM⁻¹ s⁻¹

O=C1CN2CCN3CC(=O)[O][Fe]([O]1)([O]c1ccccc1C2)[O]c1ccccc1C3 [Fe-1]
r1 [1]: 0.49 mM⁻¹ s⁻¹
Protein binding (bovine serum albumin): 33%

O=C(O)CN(CCN(CC(=O)O)Cc1ccccc1O)Cc1ccccc1O [HBED, N,N′-bis(2-hydroxyphenyl)ethylenediamine-N,N′-diacetic acid]
log K (Fe[III] binding) [4]: 39.7
